{"source": "ChEMBL document CHEMBL1201862", "about": "“PubChem BioAssay data set” (2004)", "key": {"[1]": {"molecular_target": "Serine/threonine-protein phosphatase PP1-alpha catalytic subunit (Homo sapiens, UniProt P62136)", "sequence (P62136 whole entry)": "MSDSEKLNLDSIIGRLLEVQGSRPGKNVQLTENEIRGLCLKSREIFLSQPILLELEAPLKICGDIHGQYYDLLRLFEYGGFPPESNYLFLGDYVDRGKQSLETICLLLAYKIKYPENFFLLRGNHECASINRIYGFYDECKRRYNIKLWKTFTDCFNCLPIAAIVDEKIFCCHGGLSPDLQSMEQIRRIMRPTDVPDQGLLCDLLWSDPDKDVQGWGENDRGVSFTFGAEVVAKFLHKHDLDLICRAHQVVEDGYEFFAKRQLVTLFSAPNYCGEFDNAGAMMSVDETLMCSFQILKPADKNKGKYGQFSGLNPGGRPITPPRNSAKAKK", "experiment": "inhibition of protein phosphatase 1 activity – biochemical, fluorescence, dose response (AID 2403);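 note: phosphatase turnover of OMFP into fluorescent 3-O-methylfluorescein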"}, "Streptococcus": {"tested_on": "Streptococcus", "experiment": "GAS UMAA2166 growth inhibition – luminescence, BacTiterGlo, counter-screen for streptokinase expression inhibitor project, dose response (AID 1915);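 note: potency for reduction of bacterial viability or growth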", "format": "functional, organism-based"}, "[2]": {"experiment": "Trypanosoma cruzi growth suppression in host cells – NIH3T3 host cells, beta-gal luminescence, confirmation (AID 2044);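 note: intracellular parasites grown in NIH/3T3 mouse fibroblasts as host cells; luminescent beta-galactosidase reporter signal from transgenic T. cruzi replicating inside host cells; inhibitors lower the luminescence signal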", "format": "functional, cell-based"}, "[3]": {"molecular_target": "Serine/threonine-protein phosphatase (Homo sapiens, UniProt Q9BPW0)", "sequence (Q9BPW0 whole entry)": "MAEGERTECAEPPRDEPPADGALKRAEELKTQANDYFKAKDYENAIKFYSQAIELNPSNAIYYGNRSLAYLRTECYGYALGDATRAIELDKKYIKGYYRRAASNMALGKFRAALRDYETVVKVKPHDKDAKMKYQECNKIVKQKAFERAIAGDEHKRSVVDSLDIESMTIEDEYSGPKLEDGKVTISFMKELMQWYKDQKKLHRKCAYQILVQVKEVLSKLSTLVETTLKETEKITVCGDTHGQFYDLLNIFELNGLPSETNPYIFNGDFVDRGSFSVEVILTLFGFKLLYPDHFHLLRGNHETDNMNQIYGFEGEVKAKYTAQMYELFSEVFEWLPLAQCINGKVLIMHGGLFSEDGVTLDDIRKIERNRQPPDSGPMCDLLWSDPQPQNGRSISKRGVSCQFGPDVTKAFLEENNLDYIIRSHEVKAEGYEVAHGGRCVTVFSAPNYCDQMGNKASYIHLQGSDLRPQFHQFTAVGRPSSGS", "experiment": "Counterscreen for inhibitors of PP1: fluorescence-based biochemical high throughput dose response assay to identify inhibitors of Protein Phosphatase 5 (PP5). [Related pubchem assays: 2034 (Summary (PP5 inhibitors)), 1987 (PP5 inhibitors in singlate), 2235 (PP1 inhibitors in singlate)]"}, "[4]": {"experiment": "loss of viability in HepG2 cells – cell-based, CellTiter-Glo, cherry-picked, cytotoxicity control for Shn3 inhibitor project, dose response (AID 624134)", "format": "functional"}, "[5]": {"experiment": "NIH3T3 cell viability loss – ATP luminescence, mouse fibroblasts, counter-screen, dose response (AID 2010);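 note: cells exposed to compound for about 90 hours before reading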", "format": "functional, cell-based"}, "BJ [6]": {"tested_on": "BJ", "experiment": "BJ-TERT-LT-ST fibroblast viability loss – cell-based, RAS-independent, luminescence, dose response (AID 1935);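 note: BJ fibroblasts immortalized with TERT plus LT and ST oncogenes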", "format": "functional", "conditions": "Homo sapiens"}, "cells [7]": {"experiment": "cells", "format": "functional, cell-based"}, "BJ [8]": {"tested_on": "BJ", "experiment": "BJ-TERT fibroblast viability loss – cell-based, RAS-independent, luminescence, dose response (AID 1933)", "format": "functional", "conditions": "Homo sapiens"}, "[9]": {"experiment": "reduction of Shn3 3'UTR-driven luciferase in osteoblasts – cell-based, Clone20 osteoblasts, firefly luciferase, cherry-picked, dose response (AID 624132)", "format": "functional"}, "[10]": {"tested_on": "Streptococcus sp. 'group A'", "experiment": "Streptococcus pyogenes SK(-)GAS viability under kanamycin – luminescence, BacTiterGlo, confirmation, counter-screen for streptokinase expression inhibitor project, dose response (AID 1900)", "format": "functional, organism-based"}, "INS1": {"tested_on": "INS1", "experiment": "INS-1E survival protection against cytokine death – cell-based, luminescence, retest, dose response (AID 449756);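 note: cell death triggered by IL-1 beta plus TNF-alpha plus IFN-gamma mixture; protective hits raise ATP signal compared with cytokine alone wells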", "format": "functional", "conditions": "Rattus norvegicus"}, "[11]": {"experiment": "non-specific 3'UTR reporter inhibition in Clone20-Shn3RL – cell-based, Renilla luciferase, cherry-picked, counter-screen for Shn3 inhibitor project, dose response (AID 624133)", "format": "functional"}, "BJ [12]": {"tested_on": "BJ", "experiment": "cells", "format": "functional, cell-based, Homo sapiens", "conditions": "Homo sapiens, BJ"}, "[13]": {"experiment": "DRD fibroblast viability loss – cell-based, non-viral oncogenic, luminescence, dose response (AID 1934)", "format": "functional", "conditions": "Homo sapiens"}, "cells [14]": {"experiment": "cells", "format": "functional, cell-based", "remark": "listed apart in the source"}, "Vero": {"tested_on": "Vero", "experiment": "inhibition of WNV-induced cytopathic effect – cell-based, CPE readout (AID 1621)", "format": "functional", "conditions": "Chlorocebus sabaeus"}, "Insulin-degrading enzyme": {"molecular_target": "Insulin-degrading enzyme (Homo sapiens, UniProt P14735)", "sequence (P14735 whole entry)": "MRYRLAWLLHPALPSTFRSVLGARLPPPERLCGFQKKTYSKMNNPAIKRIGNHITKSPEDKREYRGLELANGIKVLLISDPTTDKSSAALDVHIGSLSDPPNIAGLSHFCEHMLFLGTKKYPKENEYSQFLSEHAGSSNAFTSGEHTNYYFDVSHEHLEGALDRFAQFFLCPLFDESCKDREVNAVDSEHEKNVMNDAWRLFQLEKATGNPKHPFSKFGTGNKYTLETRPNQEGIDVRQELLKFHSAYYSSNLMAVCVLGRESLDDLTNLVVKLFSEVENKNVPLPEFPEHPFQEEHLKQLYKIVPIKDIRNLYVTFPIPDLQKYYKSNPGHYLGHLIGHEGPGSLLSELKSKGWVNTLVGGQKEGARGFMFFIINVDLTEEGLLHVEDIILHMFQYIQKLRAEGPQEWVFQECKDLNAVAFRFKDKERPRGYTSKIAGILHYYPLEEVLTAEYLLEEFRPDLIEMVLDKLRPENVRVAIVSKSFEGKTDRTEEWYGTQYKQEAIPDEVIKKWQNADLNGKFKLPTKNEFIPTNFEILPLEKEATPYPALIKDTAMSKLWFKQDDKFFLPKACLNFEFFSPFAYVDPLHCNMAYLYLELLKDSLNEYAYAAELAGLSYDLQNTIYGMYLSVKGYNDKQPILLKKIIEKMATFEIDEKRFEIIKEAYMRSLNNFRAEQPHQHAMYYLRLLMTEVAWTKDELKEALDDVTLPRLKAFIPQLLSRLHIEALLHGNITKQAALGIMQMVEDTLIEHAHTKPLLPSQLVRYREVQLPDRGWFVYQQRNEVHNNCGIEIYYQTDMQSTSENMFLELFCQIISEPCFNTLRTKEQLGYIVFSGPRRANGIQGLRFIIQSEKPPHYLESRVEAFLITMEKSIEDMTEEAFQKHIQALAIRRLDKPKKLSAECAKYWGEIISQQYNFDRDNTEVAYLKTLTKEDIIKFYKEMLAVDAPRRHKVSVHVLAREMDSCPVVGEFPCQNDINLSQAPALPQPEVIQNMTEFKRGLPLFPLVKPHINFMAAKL", "experiment": "Dose Response: Fluorescence polarization-based cell-based high throughput dose response assay for inhibitors of insulin-degrading enzyme (IDE). [Related pubchem assays: 434962 (Primary screen (IDE inhibitors in singlicate)), 449730 (Counterscreen (Cytotoxicity in triplicate)), 435028 (Confirmation (IDE inhibitors in triplicate)), 434984 (Summary …", "format": "functional"}, "[15]": {"experiment": "Counterscreen for IDE inhibitors: Luminescence-based cell-based high throughput dose response assay to identify compounds that are cytotoxic to HEK cells. [Related pubchem assays: 434962 (Primary screen (IDE inhibitors in singlicate)), 449730 (Counterscreen (Cytotoxicity in triplicate)), 435028 (Confirmation (IDE inhibitors in triplicate)) …", "format": "functional", "conditions": "HEK293"}, "Wee1-like protein kinase": {"molecular_target": "Wee1-like protein kinase (Homo sapiens, UniProt P30291)", "sequence (P30291 whole entry)": "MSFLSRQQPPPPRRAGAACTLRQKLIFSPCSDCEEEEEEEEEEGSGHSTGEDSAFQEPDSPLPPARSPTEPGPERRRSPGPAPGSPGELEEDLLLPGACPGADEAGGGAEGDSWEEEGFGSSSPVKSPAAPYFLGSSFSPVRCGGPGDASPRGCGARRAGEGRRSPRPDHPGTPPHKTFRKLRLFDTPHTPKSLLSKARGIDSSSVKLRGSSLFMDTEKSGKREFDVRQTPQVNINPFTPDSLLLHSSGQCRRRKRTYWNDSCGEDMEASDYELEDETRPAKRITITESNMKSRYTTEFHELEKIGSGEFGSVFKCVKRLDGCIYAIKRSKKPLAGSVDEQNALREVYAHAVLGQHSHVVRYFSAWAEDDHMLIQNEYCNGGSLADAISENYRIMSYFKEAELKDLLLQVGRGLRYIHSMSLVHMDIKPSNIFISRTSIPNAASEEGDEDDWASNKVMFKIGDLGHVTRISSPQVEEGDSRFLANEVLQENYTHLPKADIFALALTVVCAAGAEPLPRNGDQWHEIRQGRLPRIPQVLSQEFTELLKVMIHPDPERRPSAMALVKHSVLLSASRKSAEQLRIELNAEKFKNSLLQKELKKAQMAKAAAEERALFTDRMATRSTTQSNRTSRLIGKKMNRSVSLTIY", "experiment": "Dose Response Cell-based Assay for Inhibitors of Wee1 Degradation. [Related pubchem assays: 1410, 1321 ]", "format": "functional"}, "[16]": {"molecular_target": "G2/mitotic-specific cyclin-B1 (Homo sapiens, UniProt P14635)", "sequence (P14635 whole entry)": "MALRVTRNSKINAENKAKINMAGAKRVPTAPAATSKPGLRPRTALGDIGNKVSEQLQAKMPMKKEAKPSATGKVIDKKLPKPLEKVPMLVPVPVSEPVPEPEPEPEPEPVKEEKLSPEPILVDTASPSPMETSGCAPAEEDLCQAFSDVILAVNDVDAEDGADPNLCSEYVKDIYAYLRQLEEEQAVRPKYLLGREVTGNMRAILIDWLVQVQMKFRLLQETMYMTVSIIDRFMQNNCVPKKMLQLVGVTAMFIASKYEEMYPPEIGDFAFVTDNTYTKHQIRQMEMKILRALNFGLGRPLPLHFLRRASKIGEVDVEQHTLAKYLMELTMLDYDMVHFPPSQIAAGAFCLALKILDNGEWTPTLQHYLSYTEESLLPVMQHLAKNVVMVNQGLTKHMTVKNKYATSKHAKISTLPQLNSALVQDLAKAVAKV", "experiment": "Counterscreen assay for inhibitors of Wee1 degradation: dose response cell-based assay to identify inhibitors of cyclin B degradation. [Related pubchem assays: 1410, 1321 ]", "format": "functional"}, "[17]": {"molecular_target": "T1, Heat shock factor protein 1 (Mus musculus, UniProt P38532)", "T1 sequence (P38532 whole entry)": "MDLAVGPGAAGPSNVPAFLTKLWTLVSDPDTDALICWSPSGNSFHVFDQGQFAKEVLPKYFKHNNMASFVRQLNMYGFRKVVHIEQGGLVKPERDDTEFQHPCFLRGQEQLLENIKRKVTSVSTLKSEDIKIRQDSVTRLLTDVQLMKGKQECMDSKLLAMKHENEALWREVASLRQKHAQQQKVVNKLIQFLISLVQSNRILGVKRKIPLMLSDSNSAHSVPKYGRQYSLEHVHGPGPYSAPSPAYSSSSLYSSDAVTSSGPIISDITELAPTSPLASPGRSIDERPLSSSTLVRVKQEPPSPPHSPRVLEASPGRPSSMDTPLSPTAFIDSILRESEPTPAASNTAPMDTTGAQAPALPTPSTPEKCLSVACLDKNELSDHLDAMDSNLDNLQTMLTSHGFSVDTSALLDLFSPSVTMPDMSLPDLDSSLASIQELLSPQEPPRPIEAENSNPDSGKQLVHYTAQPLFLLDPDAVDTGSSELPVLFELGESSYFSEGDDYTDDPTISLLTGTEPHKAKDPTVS", "experiment": "enhancement of HSF1-driven luciferase signal – cell-based, NIH3T3, luminescence, dose retest, confirmation (AID 435004);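 note: stress induced by proteasome inhibitor MG132 added 30 min after compound; actives raise luminescence as potentiators of the MG132 stress response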", "format": "functional"}}, "note": "Active and inactive are the calls of the source.", "data": [{"smiles": "Cc1ccc(Nc2c(-c3ccccn3)nc3cccc(C)n23)cc1", "values": [{"measurement": "IC50", "setting": "[1]", "value": "8.52 µM (active)"}, {"measurement": "EC50", "setting": "Streptococcus", "value": "1.35 µM (active)"}, {"measurement": "EC50", "setting": "[2]", "value": "0.488 µM (active)"}, {"measurement": "IC50", "setting": "[3]", "value": "45.1 µM (not active)"}, {"measurement": "AC50", "setting": "[4]", "value": "25.6 µM (active)"}, {"measurement": "EC50", "setting": "[5]", "value": "< 6 µM (inconclusive)"}, {"measurement": "EC50", "setting": "BJ [6]", "value": "8.61 µM (inconclusive)"}, {"measurement": "EC50", "setting": "cells [7]", "value": "12.7 µM (active)"}, {"measurement": "EC50", "setting": "BJ [8]", "value": "6.81 µM (active)"}, {"measurement": "AC50", "setting": "[9]", "value": "1.9 µM (active)"}, {"measurement": "EC50", "setting": "[10]", "value": "0.77 µM (active)"}, {"measurement": "AC50", "setting": "INS1", "value": "2.77 µM (active)"}, {"measurement": "AC50", "setting": "[11]", "value": "0.907 µM (active)"}, {"measurement": "EC50", "setting": "BJ [12]", "value": "14.3 µM (active)"}, {"measurement": "EC50", "setting": "[13]", "value": "13.5 µM (active)"}, {"measurement": "EC50", "setting": "cells [14]", "value": "> 350 µM (not active)"}]}, {"smiles": "CN(C)CCNS(=O)(=O)c1ccc(N2CCN(c3ccc(F)cc3)CC2)c([N+](=O)[O-])c1", "values": [{"measurement": "IC50", "setting": "Vero", "value": "20 µM (active)"}]}, {"smiles": "Nc1c2c(nc3ccn(-c4ccccc4)c(=O)c13)CCCCC2", "values": [{"measurement": "IC50", "setting": "Insulin-degrading enzyme", "value": "> 55.9 µM (not active)"}, {"measurement": "IC50", "setting": "[15]", "value": "22.3 µM (not active)"}]}, {"smiles": "C=CCN(C(=O)COC(=O)c1cc[n+]([O-])cc1)c1nc(-c2ccccc2)cs1", "values": [{"measurement": "IC50", "setting": "Insulin-degrading enzyme", "value": "4.84 µM (active)"}, {"measurement": "IC50", "setting": "[15]", "value": "50.6 µM (not active)"}]}, {"smiles": "O/C(=C\\c1nc2ccccc2nc1O)c1cccs1", "values": [{"measurement": "EC50", "setting": "Wee1-like protein kinase", "value": "> 49.7 µM (not active)"}, {"measurement": "EC50", "setting": "[16]", "value": "> 49.7 µM (not active)"}]}, {"smiles": "CCOC(=O)N1CCN(C(=O)c2cc(-c3ccc(OCC)cc3)nc3ccccc23)CC1", "values": [{"measurement": "EC50", "setting": "Wee1-like protein kinase", "value": "> 49.7 µM (not active)"}, {"measurement": "EC50", "setting": "[16]", "value": "> 49.7 µM (not active)"}, {"measurement": "EC50", "setting": "[17]", "value": "14.5 µM (active)"}]}]}
